Reference: the NIST ThermoML archive (doi:10.1016/j.jct.2012.08.010)

Experiment: refractive index (Na D-line) (dimensionless); φn = volume fraction of the nth substance listed
Details: 101 kPa, Liquid, Standard Abbe refractometry

C=C[Si]1(C)O[Si](C)(C=C)O[Si](C)(C=C)O[Si](C)(C=C)O1 (stereo not given) [2,4,6,8-tetramethyl-2,4,6,8-tetravinylcycloterasiloxane] + CCc1ccccc1
refractive index
Details	288.15 K	298.15 K	308.15 K	318.15 K	328.15 K
φ1 = 0.1306	1.49051	–	–	–	–
φ1 = 0.1307	–	1.48523	1.47983	1.47444	1.46899
φ1 = 0.2495	1.48332	1.47811	–	–	–
φ1 = 0.2496	–	–	1.47276	1.46745	1.46201
φ1 = 0.3353	1.47811	1.47292	–	–	–
φ1 = 0.3354	–	–	1.46765	1.46234	1.45699
φ1 = 0.4168	1.47313	1.46801	1.46276	–	–
φ1 = 0.4169	–	–	–	1.45752	1.45223
φ1 = 0.4874	1.46879	–	–	–	–
φ1 = 0.4875	–	1.4637	1.45851	1.45331	1.44807
φ1 = 0.5524	1.46478	–	–	–	–
φ1 = 0.5525	–	1.45974	1.4546	1.44944	1.44422
φ1 = 0.5993	1.46188	–	–	–	–
φ1 = 0.5994	–	1.45688	1.4518	1.4467	1.44159
φ1 = 0.6539	1.45851	–	–	–	–
φ1 = 0.654	–	1.45353	1.44849	1.44344	1.43836
φ1 = 0.699	1.4557	1.45075	–	–	–
φ1 = 0.6991	–	–	1.44574	1.44073	1.43564
φ1 = 0.7394	1.4532	1.44826	–	–	–
φ1 = 0.7395	–	–	1.44331	1.43832	1.4333
φ1 = 0.7767	1.45085	1.44594	1.44103	–	–
φ1 = 0.7768	–	–	–	1.43607	1.43112
φ1 = 0.809	1.44885	1.44397	1.43906	–	–
φ1 = 0.8091	–	–	–	1.43412	1.4292
φ1 = 0.8409	1.44681	1.44197	–	–	–
φ1 = 0.841	–	–	1.43711	1.43222	1.42729
φ1 = 0.8663	1.44522	1.44039	1.43554	1.43067	1.42578
φ1 = 0.8945	1.44344	1.43862	–	–	–
φ1 = 0.8946	–	–	1.43382	1.42898	1.42413
φ1 = 0.9191	1.44188	1.43709	1.4323	1.42747	1.42266
φ1 = 0.9412	1.44049	1.4357	1.43092	1.42613	1.42133
φ1 = 0.9806	1.43796	1.43323	1.42848	1.42373	1.41899
φ1 = 1	1.43674	1.43202	1.4273	1.42257	1.41785

C=C[Si]1(C)O[Si](C)(C=C)O[Si](C)(C=C)O[Si](C)(C=C)O1 (stereo not given) [2,4,6,8-tetramethyl-2,4,6,8-tetravinylcycloterasiloxane] + Cc1ccc(C)cc1
Details	refractive index
288.15 K, φ1 = 0.13	1.49061
288.15 K, φ1 = 0.2483	1.48349
288.15 K, φ1 = 0.3379	1.47804
288.15 K, φ1 = 0.4151	1.47284
288.15 K, φ1 = 0.4853	1.46901
288.15 K, φ1 = 0.5501	1.46502
288.15 K, φ1 = 0.5978	1.46207
288.15 K, φ1 = 0.6522	1.45876
288.15 K, φ1 = 0.6974	1.45592
288.15 K, φ1 = 0.738	1.45339
288.15 K, φ1 = 0.7753	1.45103
288.15 K, φ1 = 0.8083	1.44898
288.15 K, φ1 = 0.8395	1.44696
288.15 K, φ1 = 0.8652	1.44534
288.15 K, φ1 = 0.8938	1.44353
288.15 K, φ1 = 0.9184	1.44195
288.15 K, φ1 = 0.9358	1.44086
288.15 K, φ1 = 0.9803	1.43802
288.15 K, φ1 = 1	1.43674
298.15 K, φ1 = 0.13	1.48533
298.15 K, φ1 = 0.2483	1.47825
298.15 K, φ1 = 0.338	1.47286
298.15 K, φ1 = 0.4151	1.46772
298.15 K, φ1 = 0.4854	1.46393
298.15 K, φ1 = 0.5501	1.45998
298.15 K, φ1 = 0.5979	1.45705
298.15 K, φ1 = 0.6522	1.45378
298.15 K, φ1 = 0.6975	1.45098
298.15 K, φ1 = 0.7381	1.44845
298.15 K, φ1 = 0.7754	1.44612
298.15 K, φ1 = 0.8084	1.44409
298.15 K, φ1 = 0.8396	1.44211
298.15 K, φ1 = 0.8653	1.44053
298.15 K, φ1 = 0.8939	1.43869
298.15 K, φ1 = 0.9185	1.43716
298.15 K, φ1 = 0.9358	1.43605
298.15 K, φ1 = 0.9803	1.43326
298.15 K, φ1 = 1	1.43202
308.15 K, φ1 = 0.13	1.47996
308.15 K, φ1 = 0.2484	1.47298
308.15 K, φ1 = 0.338	1.46767
308.15 K, φ1 = 0.4152	1.46256
308.15 K, φ1 = 0.4855	1.45883
308.15 K, φ1 = 0.5502	1.45494
308.15 K, φ1 = 0.5979	1.45204
308.15 K, φ1 = 0.6523	1.44878
308.15 K, φ1 = 0.6975	1.446
308.15 K, φ1 = 0.7381	1.44353
308.15 K, φ1 = 0.7754	1.44126
308.15 K, φ1 = 0.8084	1.4392
308.15 K, φ1 = 0.8396	1.43729
308.15 K, φ1 = 0.8653	1.4357
308.15 K, φ1 = 0.8939	1.43391
308.15 K, φ1 = 0.9185	1.43239
308.15 K, φ1 = 0.9359	1.43132
308.15 K, φ1 = 0.9803	1.42853
308.15 K, φ1 = 1	1.4273
318.15 K, φ1 = 0.1301	1.47462
318.15 K, φ1 = 0.2484	1.46772
318.15 K, φ1 = 0.3381	1.46245
318.15 K, φ1 = 0.4152	1.45742
318.15 K, φ1 = 0.4855	1.45373
318.15 K, φ1 = 0.5503	1.4499
318.15 K, φ1 = 0.598	1.44702
318.15 K, φ1 = 0.6523	1.4438
318.15 K, φ1 = 0.6976	1.44108
318.15 K, φ1 = 0.7381	1.43861
318.15 K, φ1 = 0.7755	1.43636
318.15 K, φ1 = 0.8084	1.43432
318.15 K, φ1 = 0.8396	1.43244
318.15 K, φ1 = 0.8653	1.43087
318.15 K, φ1 = 0.8939	1.42911
318.15 K, φ1 = 0.9185	1.42761
318.15 K, φ1 = 0.9359	1.42653
318.15 K, φ1 = 0.9803	1.42379
318.15 K, φ1 = 1	1.42257
328.15 K, φ1 = 0.1301	1.46923
328.15 K, φ1 = 0.2484	1.46244
328.15 K, φ1 = 0.3381	1.45725
328.15 K, φ1 = 0.4152	1.45229
328.15 K, φ1 = 0.4855	1.44864
328.15 K, φ1 = 0.5503	1.44483
328.15 K, φ1 = 0.598	1.44202
328.15 K, φ1 = 0.6523	1.43879
328.15 K, φ1 = 0.6976	1.43612
328.15 K, φ1 = 0.7382	1.43369
328.15 K, φ1 = 0.7755	1.43148
328.15 K, φ1 = 0.8085	1.42949
328.15 K, φ1 = 0.8396	1.42761
328.15 K, φ1 = 0.8653	1.42605
328.15 K, φ1 = 0.8939	1.42343
328.15 K, φ1 = 0.9185	1.42282
328.15 K, φ1 = 0.9359	1.42178
328.15 K, φ1 = 0.9803	1.41906
328.15 K, φ1 = 1	1.41785
